# Experiments:
# human GLP-1R [1] = biological target: T1, human GLP-1R (Homo sapiens, UniProt P43220); test: Human GLP-1 Receptor HEK293 cell cAMP assay, 104 fmol/mg GLP-1R expression density; type: cell-based; parameters: expressed in transfected cells; host or cells: HEK293 clonal cell line; conditions: HEK293 cell line with 104 fmol/mg expression density of GLP-1R; for EC50: geometric mean, read-out: EC50 nM (SEM, n), intracellular cAMP response, relative EC50; for Emax: percent of maximal response to GLP-1(7-36)NH2, arithmetic mean, read-out: Emax % (SEM, n), intracellular cAMP response
# T1 sequence (P43220 24-463): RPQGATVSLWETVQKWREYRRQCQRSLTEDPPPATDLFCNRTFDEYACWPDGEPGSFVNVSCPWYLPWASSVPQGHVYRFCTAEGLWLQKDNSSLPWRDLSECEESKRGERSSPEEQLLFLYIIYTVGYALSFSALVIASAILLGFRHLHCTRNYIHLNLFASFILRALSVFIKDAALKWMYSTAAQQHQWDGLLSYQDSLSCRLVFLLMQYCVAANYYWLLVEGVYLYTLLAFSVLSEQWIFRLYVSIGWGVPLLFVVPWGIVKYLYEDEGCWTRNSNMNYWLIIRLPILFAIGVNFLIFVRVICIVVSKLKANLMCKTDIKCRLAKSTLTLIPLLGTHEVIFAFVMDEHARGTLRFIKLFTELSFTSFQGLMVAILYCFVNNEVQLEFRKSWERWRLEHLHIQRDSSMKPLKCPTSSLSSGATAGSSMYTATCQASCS
# How it was run: (§1)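 HEK293 clonal lines expressing human GLP-1R, 20-point compound curves, 30 min at 37° C in DMEM with 0.1% casein, 250 μM IBMX, 0.5% DMSO. cAMP by HTRF, converted via standard curve to % of maximal human GLP-1(7-36)NH2 response; relative EC50 and Emax from four-parameter logistic fit.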
# human GLP-1R [2] = biological target: T1, human GLP-1R; test: Human GLP-1 Receptor HEK293 cell cAMP assay, 581 fmol/mg GLP-1R expression density; type: cell-based; parameters: expressed in transfected cells; host or cells: HEK293 clonal cell line; conditions: HEK293 cell line with 581 fmol/mg expression density of GLP-1R; for EC50: geometric mean, read-out: EC50 nM (SEM, n), intracellular cAMP response, relative EC50; for Emax: percent of maximal response to GLP-1(7-36)NH2, arithmetic mean, read-out: Emax % (SEM, n), intracellular cAMP response
# How it was run: as §1
Compound,EC50 (human GLP-1R [1]) [nM],Emax (human GLP-1R [1]) [%],EC50 (human GLP-1R [2]) [nM],Emax (human GLP-1R [2]) [%]
"COCCOc1cc(C(=O)O)cc2c1nc(Cc1ccc3cc1COCCc1cc(C(F)(F)F)ncc1COc1cccc-3n1)n2C[C@@H]1CCO1 [Example 52, (S)-4-(2-Methoxyethoxy)-1-(oxetan-2-ylmethyl)-2-((5^6-(trifluoromethyl)-3,8-dioxa-2(2,6),5(3,4)-dipyridina-1(1,3)-benzenacyclononaphane-1^4-yl)methyl)-1H-benzo[d]imidazole-6-carboxylic acid]",153,84.3,58.4,108
"Cc1nc(CCOc2cc(C(=O)O)cc3c2nc(Cc2ccc4cc2OCCCc2cc(C#N)ccc2COc2cccc-4n2)n3C[C@@H]2CCO2)co1 [Example 53, (S)-2-((5^4-Cyano-3,9-dioxa-2(2,6)-pyridina-1(1,3),5(1,2)-dibenzenacyclononaphane-1^4-yl)methyl)-4-(2-(2-methyloxazol-4-yl)ethoxy)-1-(oxetan-2-ylmethyl)-1H-benzo[d]imidazole-6-carboxylic acid]",293,58,77.8,104
"N#Cc1ccc2c(c1)CCCOc1cc(ccc1Cc1nc3c(OCCNCC(F)(F)F)cc(C(=O)O)cc3n1C[C@@H]1CCO1)-c1cccc(n1)OC2 [Example 54, (S)-2-((5^4-Cyano-3,9-dioxa-2(2,6)-pyridina-1(1,3),5(1,2)-dibenzenacyclononaphane-1^4-yl)methyl)-1-(oxetan-2-ylmethyl)-4-(2-((2,2,2-trifluoroethyl)amino)ethoxy)-1H-benzo[d]imidazole-6-carboxylic acid]",654,18.3,440,49.5
"CNCCOc1cc(C(=O)O)cc2c1nc(Cc1ccc3cc1COCCc1cc(Cl)ccc1COc1cccc-3n1)n2C[C@@H]1CCO1 [Example 57, (S)-2-((5^4-Chloro-3,8-dioxa-2(2,6)-pyridina-1(1,3),5(1,2)-dibenzenacyclononaphane-1^4-yl)methyl)-4-(2-(methylamino)ethoxy)-1-(oxetan-2-ylmethyl)-1H-benzo[d]imidazole-6-carboxylic acid]",1030,42.1,440,76.2

# The remaining lines, values ahead:
EC50 (human GLP-1R [1]) [nM],Emax (human GLP-1R [1]) [%],EC50 (human GLP-1R [2]) [nM],Emax (human GLP-1R [2]) [%],Compound
152,77.1,41,96.7,"COc1cc(C(=O)O)cc2c1nc(Cc1ccc3cc1COCCc1cc(C#N)ccc1COc1ccnc-3n1)n2C[C@@H]1CCO1 [Example 51, (S)-2-((5^4-Cyano-3,8-dioxa-2(2,4)-pyrimidina-1(1,3),5(1,2)-dibenzenacyclononaphane-1^4-yl)methyl)-4-methoxy-1-(oxetan-2-ylmethyl)-1H-benzo[d]imidazole-6-carboxylic acid]"
22.8,84.8,8.94,113,"O=C(O)c1cc(OCCO)c2nc(Cc3ccc4cc3COCCc3cc(Cl)ccc3COc3cccc-4n3)n(C[C@@H]3CCO3)c2c1 [Example 55, (S)-4-[2-Hydroxyethoxy]-2-((5^4-chloro-3,8-dioxa-2(2,6)-pyridina-1(1,3),5(1,2)-dibenzenacyclononaphane-1^4-yl)methyl)-1-(oxetan-2-ylmethyl)-1H-benzo[d]imidazole-6-carboxylic acid]"
131,41.7,55.8,85,"CN(C)CCOc1cc(C(=O)O)cc2c1nc(Cc1ccc3cc1COCCc1cc(Cl)ccc1COc1cccc-3n1)n2C[C@@H]1CCO1 [Example 56, (S)-2-((5^4-Chloro-3,8-dioxa-2(2,6)-pyridina-1(1,3),5(1,2)-dibenzenacyclononaphane-1^4-yl)methyl)-4-(2-(dimethylamino)ethoxy)-1-(oxetan-2-ylmethyl)-1H-benzo[d]imidazole-6-carboxylic acid]"
